{
  "source": "patent US20250312320A1",
  "about": "“METHOD AND TREATMENT FOR OSTEOARTHRITIS AND DISEASES OF CHONDROCYTE HYPERTROPHY” (The Royal Veterinary College, priority 2022, published 2025)",
  "key": {"[1]": {"system": "ATDC5 micromasses", "experiment": "RNA sequencing of BI1347 treated ATDC5 micromasses", "assay_type": "cell-based, mouse", "details": "1 μM vs DMSO", "method": "2.7×10^5 ATDC5 cells were seeded in a 10 μl micromasses and differentiated in the presence of 1 μM BI1347 or DMSO control for 7 days before RNA extraction as previously described. Two wells were pooled per extraction and treatment conditions were set up in triplicate.\nTotal RNA quantification and integrity was determined via Bioanalyzer 2100 (Agilent) and RNA samples with an integrity number above 9.0 were processed for RNA sequencing.\nThe RNA library was formed by polyA capture using poly-T oligo attached magnetic beads and subsequently reverse transcribed for cDNA synthesis and library construction. The library was then sequenced using the Illumina PE150 technology and clean reads with high quality data were taken forward for downstream analysis. Paired-end clean reads were aligned to the Mus Musculus reference genome and reads numbers mapped to each gene. Fragments Per Kilobase of transcript sequence per Millions base pairs sequenced (FPKM) of each gene was calculated based on the length of the gene and reads count mapped to the gene.\nDifferential expression analysis of BI1347 treatment versus DMSO control was performed. Genes with an adjusted P-value≤0.05 and a fold change≥2 were considered differentially expressed.\nCluster analysis was carried out on all the differentially expressed genes in each group and biological replicate using hierarchical clustering to cluster the FPKM values of genes.\nGenes of interest relating to chondrocyte hypertrophy and cartilage homeostasis were identified."}, "[2]": {"system": "zebrafish embryo endochondral jaw bone", "experiment": "Zebrafish jaw analysis of hypertrophic zones", "assay_type": "in vivo, zebrafish (Danio rerio)", "details": "50 nM or 100 nM, 24 hpf to 5 dpf, vs DMSO", "method": "Several bones during zebrafish (Danio rerio) craniofacial development exist via endochondral ossification, thus the developing zebrafish embryo is a useful in vivo model of chondrocyte hypertrophy (Dietrich et al. (2021) “Skeletal Biology and Disease Modeling in Zebrafish”. J Bone Miner Res, 36:436-458. https://doi.org/10.1002/jbmr.4256). Embryos at 24 hpf were cultured in the E3 water ([…], 0.17 mM KCl, 0.33 mM CaCl2, 0.33 mM MgSO4, and 0.1% Methylene Blue) in the presence of 50 nM or 100 nM MSC2530818 or DMSO control up until 5 dpf, with E3 water refreshed every 2 days. At 5 dpf embryos were fixed in 4% PFA overnight at 4° C. before washing in 70% EtOH for 10 mins followed by 50% EtOH for a further 10 mins. Specimens were then incubated in alcian blue stain (0.1% Alcian blue, 70% EtOH, 30% Glacial acetic acid) overnight with gentle agitation before 30 min washes in 100, 80, 70% EtOH and 0.1% PBST. Specimens were digested for 1 hour in enzyme solution (10 mg/ml trypsin in 30% saturated sodium tetraborate) followed by a 1-hour incubation in bleaching solution (3% hydrogen peroxide, 1% potassium hydroxide). Specimens were washed in 0.1% PBST and stored in 70% glycerol at 4° C. until imaging. Jaw sections were dissected and the number of enlarged cells within the entopterygoid/ceratohyal region were counted."}, "[3]": {"system": "hypertrophic ATDC5 micromasses", "experiment": "Metabolic analysis (MitoStress Test, Seahorse XF) of hypertrophic ATDC5 micromasses", "assay_type": "cell-based, mouse", "details": "1 μM", "method": "This higher dependency on glycolysis for energy production is linked to enhanced catabolic processes, therefore reducing glycolysis has been proposed as a therapeutic approach for OA (Tan et al. (2022) “A new strategy for osteoarthritis therapy: Inhibition of glycolysis”. Front Pharmacol. 2022 Nov. 10; 13:1057229. doi: 10.3389/fphar.2022.1057229.). To assess energy metabolism of hypertrophic ATDC5 cells in the presence of CDK8i, 2 μl micromasses were seeded onto a Seahorse XF HS Miniplate (Agilent). Micromasses were differentiated in the presence of MSC2530818 as previously described for 1 week before switching to mineralisation media containing MSC2530818 for 24 hours. The MitoStress Test (Agilent) was carried out on hypertrophic micromasses using 1.5 μM oligomycin, 0.5 μM […] and 0.25 μM FCCP which measured real-time extracellular acidification and oxygen consumption rate. Analysis via the Agilent Seahorse Analytics platform basal oxygen consumption rate and glycolysis measurements."}},
  "data": [
    {"smiles": "CN(C)C(=O)Cn1cc(-c2ccc(-c3cncc4ccccc34)cc2)cn1", "note": "[BI1347]", "values": [
      {"measurement": "enrichment of downregulated biological process: innate immune response", "setting": "[1]; day 7, Gene Ontology", "result": 3, "unit": "fold"},
      {"measurement": "enrichment of downregulated biological process: response to cytokines", "setting": "[1]; day 7, Gene Ontology", "result": 3, "unit": "fold"},
      {"measurement": "enrichment of downregulated biological process: response to interferon-beta", "setting": "[1]; day 7, Gene Ontology", "result": 15, "unit": "fold"},
      {"measurement": "enrichment of upregulated biological process: Chondrocyte differentiation", "setting": "[1]; day 7, Gene Ontology", "result": 6, "unit": "fold"},
      {"measurement": "enrichment of upregulated biological process: Collagen fibril organisation", "setting": "[1]; day 7, Gene Ontology", "result": 10, "unit": "fold"},
      {"measurement": "enrichment of upregulated biological process: cartilage development", "setting": "[1]; day 7, Gene Ontology", "result": 5.5, "unit": "fold"},
      {"measurement": "enrichment of upregulated biological process: extracellular matrix organisation", "setting": "[1]; day 7, Gene Ontology", "result": 5, "unit": "fold"},
      {"measurement": "Log2 Fold Change ACAN", "setting": "[1]; RNA-Seq, day 7", "result": 2.40},
      {"measurement": "Log2 Fold Change ADAMT S4", "setting": "[1]; RNA-Seq, day 7", "result": "−1.58"},
      {"measurement": "Log2 Fold Change AXIN2", "setting": "[1]; RNA-Seq, day 7", "result": "−2.38"},
      {"measurement": "Log2 Fold Change BARX2", "setting": "[1]; RNA-Seq, day 7", "result": 6.42},
      {"measurement": "Log2 Fold Change BGLAP", "setting": "[1]; RNA-Seq, day 7", "result": "−1.42"},
      {"measurement": "Log2 Fold Change COL2A1", "setting": "[1]; RNA-Seq, day 7", "result": 2.69},
      {"measurement": "Log2 Fold Change COL9A3", "setting": "[1]; RNA-Seq, day 7", "result": 4.44},
      {"measurement": "Log2 Fold Change COL 13A1", "setting": "[1]; RNA-Seq, day 7", "result": "−4.99"},
      {"measurement": "Log2 Fold Change CPA5", "setting": "[1]; RNA-Seq, day 7", "result": 7.57},
      {"measurement": "Log2 Fold Change CPM", "setting": "[1]; RNA-Seq, day 7", "result": 6.76},
      {"measurement": "Log2 Fold Change F5", "setting": "[1]; RNA-Seq, day 7", "result": 6.76},
      {"measurement": "Log2 Fold Change FGFR3", "setting": "[1]; RNA-Seq, day 7", "result": 1.75},
      {"measurement": "Log2 Fold Change GALNT17", "setting": "[1]; RNA-Seq, day 7", "result": 6.56},
      {"measurement": "Log2 Fold Change GDF5", "setting": "[1]; RNA-Seq, day 7", "result": 2.39},
      {"measurement": "Log2 Fold Change GREM1", "setting": "[1]; RNA-Seq, day 7", "result": 1.68},
      {"measurement": "Log2 Fold Change IBSP", "setting": "[1]; RNA-Seq, day 7", "result": "−6.06"},
      {"measurement": "Log2 Fold Change IHH", "setting": "[1]; RNA-Seq, day 7", "result": "−2.65"},
      {"measurement": "Log2 Fold Change IL-6", "setting": "[1]; RNA-Seq, day 7", "result": "−3.23"},
      {"measurement": "Log2 Fold Change ISG15", "setting": "[1]; RNA-Seq, day 7", "result": "−6.47"},
      {"measurement": "Log2 Fold Change KLK11", "setting": "[1]; RNA-Seq, day 7", "result": 6.45},
      {"measurement": "Log2 Fold Change MATN1", "setting": "[1]; RNA-Seq, day 7", "result": 5.88},
      {"measurement": "Log2 Fold Change MATN3", "setting": "[1]; RNA-Seq, day 7", "result": 5.87},
      {"measurement": "Log2 Fold Change MEF2C", "setting": "[1]; RNA-Seq, day 7", "result": "−1.58"},
      {"measurement": "Log2 Fold Change NOG", "setting": "[1]; RNA-Seq, day 7", "result": 2.08},
      {"measurement": "Log2 Fold Change NOSTRIN", "setting": "[1]; RNA-Seq, day 7", "result": "−2.00"},
      {"measurement": "Log2 Fold Change P2RY10", "setting": "[1]; RNA-Seq, day 7", "result": 6.40},
      {"measurement": "Log2 Fold Change PHLDA2", "setting": "[1]; RNA-Seq, day 7", "result": 6.62},
      {"measurement": "Log2 Fold Change SMOC3", "setting": "[1]; RNA-Seq, day 7", "result": 2.71},
      {"measurement": "Log2 Fold Change SOX5", "setting": "[1]; RNA-Seq, day 7", "result": 1.16},
      {"measurement": "Log2 Fold Change SOX6", "setting": "[1]; RNA-Seq, day 7", "result": 1.11},
      {"measurement": "Log2 Fold Change SOX8", "setting": "[1]; RNA-Seq, day 7", "result": 2.65},
      {"measurement": "Log2 Fold Change TMEM119", "setting": "[1]; RNA-Seq, day 7", "result": "−4.98"},
      {"measurement": "log2FoldChange GRHL3", "setting": "[1]; RNA-Seq, day 7", "result": "−7.66"},
      {"measurement": "log2FoldChange MX2", "setting": "[1]; RNA-Seq, day 7", "result": "−7.03"},
      {"measurement": "log2FoldChange OAS1A", "setting": "[1]; RNA-Seq, day 7", "result": "−7.64"},
      {"measurement": "log2FoldChange OAS2", "setting": "[1]; RNA-Seq, day 7", "result": "−11.27"},
      {"measurement": "log2FoldChange OAS3", "setting": "[1]; RNA-Seq, day 7", "result": "−7.22"},
      {"measurement": "log2FoldChange OASL1", "setting": "[1]; RNA-Seq, day 7", "result": "−10.46"},
      {"measurement": "log2FoldChange RSAD2", "setting": "[1]; RNA-Seq, day 7", "result": "−7.12"},
      {"measurement": "log2FoldChange SLC36A2", "setting": "[1]; RNA-Seq, day 7", "result": "−8.53"},
      {"measurement": "log2FoldChange TRIM30D", "setting": "[1]; RNA-Seq, day 7", "result": "−7.12"}
    ]},
    {"smiles": "Cc1n[nH]c2ncc(C(=O)N3CCC[C@H]3c3ccc(Cl)cc3)cc12", "note": "[MSC2530818]", "values": [
      {"measurement": "size of the hypertrophic region and number of enlarged/hypertrophic cells", "setting": "[2]", "result": "dose dependent reduction"},
      {"measurement": "decrease in total basal glycolysis (inferred from OCR/ECAR measurements) vs DMSO", "setting": "[3]", "result": 37, "unit": "%"},
      {"measurement": "extracellular acidification rate (ECAR) vs DMSO", "setting": "[3]; across the time course measured", "result": "lower than DMSO control"},
      {"measurement": "total basal oxygen consumption rate (OCR) vs DMSO", "setting": "[3]; p=0.5085", "result": "no significant difference"}
    ]}
  ]
}
